# Measured values taken from patent publication US7998965B2, “Glutamate aggrecanase inhibitors” (Wyeth LLC, priority 2005, dated 2011).
# Tests used:
# [1] = biological target: T1, purified recombinant human Aggrecanase-1 (rAgg1) (Homo sapiens, UniProt O75173); assay: In vitro fluorescence screen for Aggrecanase-1 inhibitors; type: biochemical; conditions: Table 3; for IC50: read-out: Agg1 IC50; for Ki: read-out: Ki Agg1
# T1 sequence (O75173 213-837): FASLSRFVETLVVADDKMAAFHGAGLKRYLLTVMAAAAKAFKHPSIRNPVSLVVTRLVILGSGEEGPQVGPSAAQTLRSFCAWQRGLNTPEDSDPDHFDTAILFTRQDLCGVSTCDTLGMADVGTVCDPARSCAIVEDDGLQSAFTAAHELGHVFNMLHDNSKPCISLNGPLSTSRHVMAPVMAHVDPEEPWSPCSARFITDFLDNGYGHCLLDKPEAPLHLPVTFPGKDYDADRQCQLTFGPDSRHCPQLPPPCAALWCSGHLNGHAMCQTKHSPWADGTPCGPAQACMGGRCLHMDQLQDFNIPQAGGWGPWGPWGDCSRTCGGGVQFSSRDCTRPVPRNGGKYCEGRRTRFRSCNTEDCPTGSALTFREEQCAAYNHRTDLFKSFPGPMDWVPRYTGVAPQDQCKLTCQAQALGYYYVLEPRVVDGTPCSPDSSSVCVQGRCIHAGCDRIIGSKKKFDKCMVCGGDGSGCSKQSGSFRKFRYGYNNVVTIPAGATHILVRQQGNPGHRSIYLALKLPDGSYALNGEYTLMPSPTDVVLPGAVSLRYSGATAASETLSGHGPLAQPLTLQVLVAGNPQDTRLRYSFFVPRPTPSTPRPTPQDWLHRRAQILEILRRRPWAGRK
# [2] = biological target: MMP-12 (Homo sapiens, UniProt P39900); assay: MMP-12 of Table 3; type: biochemical; conditions: unit inferred
# Chain of MMP-12 (P39900 106-470): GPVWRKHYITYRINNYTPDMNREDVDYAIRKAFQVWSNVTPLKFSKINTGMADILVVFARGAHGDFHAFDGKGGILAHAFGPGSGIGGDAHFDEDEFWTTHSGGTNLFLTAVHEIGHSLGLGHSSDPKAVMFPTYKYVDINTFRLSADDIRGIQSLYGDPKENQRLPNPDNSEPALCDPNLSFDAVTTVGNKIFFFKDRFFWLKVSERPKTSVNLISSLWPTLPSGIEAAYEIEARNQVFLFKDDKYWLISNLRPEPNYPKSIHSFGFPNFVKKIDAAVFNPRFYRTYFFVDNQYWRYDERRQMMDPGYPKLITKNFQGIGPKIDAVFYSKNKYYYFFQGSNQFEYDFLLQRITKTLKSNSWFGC
# [3] = biological target: MMP-8 (Homo sapiens, UniProt P22894); assay: MMP-8 of Table 3; type: biochemical; conditions: unit inferred
# Chain of MMP-8 (P22894 101-467, species assumed): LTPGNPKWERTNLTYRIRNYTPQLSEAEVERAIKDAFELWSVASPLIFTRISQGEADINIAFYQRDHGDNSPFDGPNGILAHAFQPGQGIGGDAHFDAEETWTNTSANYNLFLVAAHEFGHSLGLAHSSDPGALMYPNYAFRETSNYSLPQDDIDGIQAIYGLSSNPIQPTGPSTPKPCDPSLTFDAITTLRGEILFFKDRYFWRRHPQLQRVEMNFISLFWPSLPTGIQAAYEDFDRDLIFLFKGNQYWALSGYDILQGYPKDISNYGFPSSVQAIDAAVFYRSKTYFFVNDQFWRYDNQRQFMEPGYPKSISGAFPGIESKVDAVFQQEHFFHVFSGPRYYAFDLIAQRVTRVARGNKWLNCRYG
# [4] = biological target: T2, recombinant human MMP-2 (Homo sapiens, UniProt P08253); assay: In vitro fluorescence assay of MMP-2 activity
# T2 sequence (P08253 110-660): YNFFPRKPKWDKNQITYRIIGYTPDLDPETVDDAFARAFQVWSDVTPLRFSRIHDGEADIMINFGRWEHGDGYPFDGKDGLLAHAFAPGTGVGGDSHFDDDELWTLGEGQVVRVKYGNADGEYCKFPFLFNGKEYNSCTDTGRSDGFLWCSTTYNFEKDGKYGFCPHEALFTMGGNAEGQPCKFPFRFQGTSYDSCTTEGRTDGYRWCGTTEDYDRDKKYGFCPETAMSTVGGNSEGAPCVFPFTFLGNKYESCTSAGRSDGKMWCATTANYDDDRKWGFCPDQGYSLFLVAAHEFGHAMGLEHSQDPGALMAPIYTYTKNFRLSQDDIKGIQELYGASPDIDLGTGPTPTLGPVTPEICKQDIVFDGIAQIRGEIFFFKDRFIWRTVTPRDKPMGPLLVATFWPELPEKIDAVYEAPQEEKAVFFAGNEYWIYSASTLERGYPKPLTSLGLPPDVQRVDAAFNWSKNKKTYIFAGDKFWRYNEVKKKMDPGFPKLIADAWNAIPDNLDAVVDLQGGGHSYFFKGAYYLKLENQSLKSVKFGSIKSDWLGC
# Protocol: A continuous assay was used in which the substrate is a synthetic peptide containing a fluorescent group (7-methoxycoumarin; Mca), which is quenched by energy transfer to a 2,4-dinitrophenyl group. […] The source of enzyme in the assay was the recombinant human MMP-2 (66 kDa; Oncogene Research Products (catalog number PF023 from Calbiochem)). The substrate used was the peptide Mca-PQGL-(3-[2,4-dinitrophenyl]-L-2,3-diaminopropionyl)-AR-OH. The assay buffer consisted of 50 mM Hepes (pH 7.4), 100 mM NaCl, 5 mM CaCl2, and 0.005% Brij-35. […] The plates were then incubated at 30° C. for 15 minutes. The enzymatic reactions were initiated by adding the substrate to a final concentration of 20 μM, and mixing 10 times with a pipette. The final DMSO concentration in the assay was 6.0%.
# Plots of the inhibitor concentration vs. the percent inhibition were fit to the following equation: y=(a−d)/[^1+(x/c)^b]+d, a general sigmoidal curve with Hill slope, a to d. x is the inhibitor concentration under test. y is the percent inhibition. a is the limiting response as x approaches zero. As x increases without bound, y tends toward its limit d. c is the inflection point (IC50) for the curve. That is, y is halfway between the lower and upper asymptotes when x=c. b is the slope factor or Hill coefficient.
# [5] = biological target: T3, purified recombinant human Aggrecanase-2 (Ag2t-Phe628-Strep) (Homo sapiens, UniProt Q9UNA0); assay: In vitro fluorescence screen for Aggrecanase-2 inhibitors; type: biochemical; conditions: Table 3; for IC50: read-out: Agg 2 IC50; for Ki: read-out: Ki Agg2
# T3 construct: the form used is denoted as Ag2t-Phe628-Strep (MW=41,737)
# T3 sequence (Q9UNA0 262-628): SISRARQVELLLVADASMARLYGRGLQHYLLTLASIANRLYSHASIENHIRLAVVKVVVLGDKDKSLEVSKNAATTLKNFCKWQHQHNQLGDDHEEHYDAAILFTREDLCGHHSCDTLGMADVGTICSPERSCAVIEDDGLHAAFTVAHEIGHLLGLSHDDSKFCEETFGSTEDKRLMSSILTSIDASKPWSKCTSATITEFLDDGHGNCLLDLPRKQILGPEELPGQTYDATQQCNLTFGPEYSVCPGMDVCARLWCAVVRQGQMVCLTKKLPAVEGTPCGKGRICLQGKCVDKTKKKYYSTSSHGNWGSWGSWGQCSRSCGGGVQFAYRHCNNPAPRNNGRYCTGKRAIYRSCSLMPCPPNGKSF
IC50 [1] [µM],Ki [1] [µM],IC50 [2] [µM],IC50 [3] [µM],IC50 [4] [µM],IC50 [5] [µM],Ki [5] [µM],"inhibition at 0.14 µM ([5]; at 140 (nM), read-out: Agg 2 % at concentration) [%]",SMILES
< 0.03,0.007,0.77,0.41,0.57,,0.305,51,"Cc1ccc(-c2ccc(C(=O)N[C@@H](CCC(=O)O)C(=O)NC(C)(C)Cc3ccc(F)cc3)cc2)s1 [Example 8VVVVVVV, N-[2-(4-fluorophenyl)-1,1-dimethylethyl]-N^2-[4-(5-methyl-2-thienyl)benzoyl]-L-α-glutamine]"
< 0.003,0.0071,5.8,1,2.6,0.05,0.072,,"CC(C)(Cc1ccc(F)cc1)NC(=O)[C@H](CCC(=O)O)NC(=O)c1ccc(-c2ccc(Br)s2)cc1 [Example 8WWWWWW, N^2-[4-(5-bromo-2-thienyl)benzoyl]-N-[2-(4-fluorophenyl)-1,1-dimethylethyl]-L-α-glutamine]"
< 0.03,0.0182,0.597,1.79,2.61,0.025,0.0716,,"CC(C)(Cc1ccc(Cl)cc1)NC(=O)[C@H](CCC(=O)O)NC(=O)c1ccc(-c2ccc(Cl)cc2)cc1 [Example 8XXXXXXXXX, N^2-[(4′-chlorobiphenyl-4-yl)carbonyl]-N-[2-(4-chlorophenyl)-1,1-dimethylethyl]-L-α-glutamine]"
< 0.03,0.0047,2.86,2.44,8.28,0.03 to 0.09,0.123,,"CC(C)(Cc1ccc(F)cc1)NC(=O)[C@H](CCC(=O)O)NC(=O)c1ccc(-c2ccc(F)cc2)s1 [Example 8ZZZZZZZZZ, N-[2-(4-fluorophenyl)-1,1-dimethylethyl]-N^2-{[5-(4-fluorophenyl)-2-thienyl]carbonyl}-L-α-glutamine]"
< 0.03,0.0115,2.89,2.55,7.24,0.03 to 0.3,0.126,,"CC(C)(Cc1ccccc1)NC(=O)[C@H](CCC(=O)O)NC(=O)c1ccc(-c2ccc(F)cc2)s1 [N-(1,1-dimethyl-2-phenylethyl)-N^2-{[5-(4-fluorophenyl)-2-thienyl]carbonyl}-L-α-glutamine]"
< 0.03,0.042,> 10,> 5,1.3,> 0.3,0.723,,"CC(C)(Cc1ccc(F)cc1)NC(=O)[C@H](CCC(=O)O)NC(=O)c1ccc(-c2ccc(Cl)s2)nc1 [N^2-{[6-(5-chloro-2-thienyl)pyridin-3-yl]carbonyl}-N-[2-(4-fluorophenyl)-1,1-dimethylethyl]-L-α-glutamine]"

# Continued, compound first:
SMILES,IC50 [1] [µM],Ki [1] [µM],IC50 [2] [µM],IC50 [3] [µM],IC50 [4] [µM],IC50 [5] [µM],Ki [5] [µM],"inhibition at 0.14 µM ([5]; at 140 (nM), read-out: Agg 2 % at concentration) [%]"
"CC(C)(Cc1ccc(F)cc1)NC(=O)[C@H](CCC(=O)O)NC(=O)c1ccc(-c2ccsc2)cc1 [Example 8UUUUUUU, N-[2-(4-fluorophenyl)-1,1-dimethylethyl]-N^2-[4-(3-thienyl)benzoyl]-L-α-glutamine]",< 0.03,< 0.003,0.41,2.03,5.18,0.06,0.06,
"CC(C)(Cc1ccc(Cl)s1)NC(=O)[C@H](CCC(=O)O)NC(=O)c1ccc(-c2cccc(F)c2)cc1 [Example 8XXXXXX, N-[2-(5-chloro-2-thienyl)-1,1-dimethylethyl]-N^2-[(3′-fluorobiphenyl-4-yl)carbonyl]-L-α-glutamine]",< 0.03,< 0.003,1.6,4.1,7.5,0.02,0.06,
"CC(C)(Cc1ccc(F)cc1)NC(=O)[C@H](CCC(=O)O)NC(=O)c1ccc(-c2ccc(F)c(F)c2)cc1 [Example 8YYYYYY, N^2-[(3′,4′-difluorobiphenyl-4-yl)carbonyl]-N-[2-(4-fluorophenyl)-1,1-dimethylethyl]-L-α-glutamine]",< 0.03,0.0135,0.365,0.737,4.7,0.03,0.16,
"CC(C)(Cc1ccccc1)NC(=O)[C@H](CCC(=O)O)NC(=O)c1ccc(-c2cccc(F)c2)cc1 [N-(1,1-dimethyl-2-phenylethyl)-N^2-[(3′-fluorobiphenyl-4-yl)carbonyl]-L-α-glutamine]",< 0.03,0.0232,1.07,2.5,6.4,0.08,0.18,
"CC(C)(Cc1ccccc1)NC(=O)[C@H](CCC(=O)O)NC(=O)c1ccc(-c2ccc(F)cc2)cc1 [N-(1,1-dimethyl-2-phenylethyl)-N^2-[(4′-fluorobiphenyl-4-yl)carbonyl]-L-α-glutamine]",< 0.03,0.0272,0.628,0.763,4,0.09,0.218,
"CC(C)(Cc1ccc(Cl)cc1)NC(=O)[C@H](CCC(=O)O)NC(=O)c1ccc(-c2cccc(Cl)c2)cc1 [N^2-[(3′-chlorobiphenyl-4-yl)carbonyl]-N-[2-(4-chlorophenyl)-1,1-dimethylethyl]-L-α-glutamine]",< 0.03,0.0396,3.71,13.2,25.5,0.25,0.349,
"CC(C)(Cc1ccccc1)NC(=O)[C@H](CCC(=O)O)NC(=O)c1ccc(-c2ccc(Cl)cc2)s1 [N^2-{[5-(4-chlorophenyl)-2-thienyl]carbonyl}-N-(1,1-dimethyl-2-phenylethyl)-L-α-glutamine]",< 0.03,0.0289,2.24,2.23,6.97,0.1 to 0.3,0.204,
"CC(C)(Cc1ccc(F)cc1)NC(=O)[C@H](CCC(=O)O)NC(=O)c1ccc(-c2ccc(Cl)cc2)s1 [N^2-{[5-(4-chlorophenyl)-2-thienyl]carbonyl}-N-[2-(4-fluorophenyl)-1,1-dimethylethyl]-L-α-glutamine]",< 0.03,0.0117,> 10,3.4,8,> 0.1,0.405,
